Reference: PubChem BioAssay (NCI)
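Dose response: 5 concentrations. Exposure: 48 h. Format: 96-well plates. Endpoint: linear interpolation; highest concentration if not reached. At the GI50, growth is halved. TGI: total growth inhibition.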

Tests used:
Assay in all cases: DTP human tumour cell line panel, 48 h
786-0 renal = system: 786-0 renal
A498 renal = system: A498 renal
A549 NSCLC = system: A549 NSCLC
ACHN renal = system: ACHN renal
BT-549 breast = system: BT-549 breast
CAKI-1 renal = system: CAKI-1 renal
CCRF-CEM leukemia = system: CCRF-CEM leukemia
COLO 205 colon = system: COLO 205 colon
DU-145 prostate = system: DU-145 prostate
EKVX NSCLC = system: EKVX NSCLC
HCC-2998 colon = system: HCC-2998 colon
HCT-116 colon = system: HCT-116 colon
HCT-15 colon = system: HCT-15 colon
HL-60(TB) leukemia = system: HL-60(TB) leukemia
HOP-62 NSCLC = system: HOP-62 NSCLC
HOP-92 NSCLC = system: HOP-92 NSCLC
HS 578T breast = system: HS 578T breast
HT29 colon = system: HT29 colon
IGROV1 ovarian = system: IGROV1 ovarian
K-562 leukemia = system: K-562 leukemia
KM12 colon = system: KM12 colon
LOX IMVI melanoma = system: LOX IMVI melanoma
M14 melanoma = system: M14 melanoma
MALME-3M melanoma = system: MALME-3M melanoma
MCF7 breast = system: MCF7 breast
MDA-MB-231 breast = system: MDA-MB-231 breast
MDA-MB-435 = system: MDA-MB-435
MOLT-4 leukemia = system: MOLT-4 leukemia
NCI-H226 lung = system: NCI-H226 lung
NCI-H23 lung = system: NCI-H23 lung
NCI-H460 lung = system: NCI-H460 lung
NCI-H522 lung = system: NCI-H522 lung
NCI/ADR-RES ovarian = system: NCI/ADR-RES ovarian
OVCAR-3 ovarian = system: OVCAR-3 ovarian
OVCAR-4 ovarian = system: OVCAR-4 ovarian
OVCAR-5 ovarian = system: OVCAR-5 ovarian
OVCAR-8 ovarian = system: OVCAR-8 ovarian
PC-3 prostate = system: PC-3 prostate
RPMI-8226 leukemia = system: RPMI-8226 leukemia
RXF 393 renal = system: RXF 393 renal
SF-268 CNS = system: SF-268 CNS
SF-295 CNS = system: SF-295 CNS
SF-539 CNS = system: SF-539 CNS
SK-MEL-2 melanoma = system: SK-MEL-2 melanoma
SK-MEL-28 melanoma = system: SK-MEL-28 melanoma
SK-MEL-5 melanoma = system: SK-MEL-5 melanoma
SK-OV-3 ovarian = system: SK-OV-3 ovarian
SN12C renal = system: SN12C renal
SNB-19 CNS = system: SNB-19 CNS
SR leukemia = system: SR leukemia
SW-620 colon = system: SW-620 colon
T-47D breast = system: T-47D breast
TK-10 renal = system: TK-10 renal
U251 CNS = system: U251 CNS
UACC-257 melanoma = system: UACC-257 melanoma
UACC-62 melanoma = system: UACC-62 melanoma
UO-31 renal = system: UO-31 renal

**Q.** How did the GI50 (786-0 renal) turn out when `C#C[C@]1(O)CC[C@H]2[C@@H]3CC=C4c5nc(N)sc5CC[C@]4(C)[C@H]3CC[C@@]21C` was run?
**A.** 2.06 µM

**Q.** And the TGI (786-0 renal)?
**A.** 4.41 µM

**Q.** And the GI50 (A498 renal)?
**A.** 1.96 µM

**Q.** What about the TGI (A498 renal) of the same compound?
**A.** 4.21 µM

**Q.** What about the GI50 (A549 NSCLC) of the same compound?
**A.** 4.15 µM

**Q.** And the TGI (A549 NSCLC)?
**A.** 24.8 µM

**Q.** And the GI50 (ACHN renal)?
**A.** 5.25 µM

**Q.** And the TGI (ACHN renal)?
**A.** 30.2 µM

**Q.** What about the GI50 (BT-549 breast) of the same compound?
**A.** 1.97 µM

**Q.** And the TGI (BT-549 breast)?
**A.** 6.26 µM

**Q.** And the GI50 (CAKI-1 renal)?
**A.** 3.08 µM

**Q.** What about the TGI (CAKI-1 renal) of the same compound?
**A.** 14.8 µM

**Q.** What about the GI50 (CCRF-CEM leukemia) of the same compound?
**A.** 2.79 µM

**Q.** What about the TGI (CCRF-CEM leukemia) of the same compound?
**A.** 14.9 µM

**Q.** And the GI50 (COLO 205 colon)?
**A.** 3.66 µM

**Q.** And the TGI (COLO 205 colon)?
**A.** 15.8 µM

**Q.** And the GI50 (DU-145 prostate)?
**A.** 5.19 µM

**Q.** And the TGI (DU-145 prostate)?
**A.** 20.8 µM

**Q.** What about the GI50 (EKVX NSCLC) of the same compound?
**A.** 5.47 µM

**Q.** What about the TGI (EKVX NSCLC) of the same compound?
**A.** 50.9 µM

**Q.** What about the GI50 (HCC-2998 colon) of the same compound?
**A.** 4.21 µM

**Q.** What about the TGI (HCC-2998 colon) of the same compound?
**A.** 19.2 µM

**Q.** And the GI50 (HCT-116 colon)?
**A.** 3.91 µM

**Q.** And the TGI (HCT-116 colon)?
**A.** 19.6 µM

**Q.** And the GI50 (HCT-15 colon)?
**A.** 3.2 µM

**Q.** What about the TGI (HCT-15 colon) of the same compound?
**A.** 17.3 µM

**Q.** And the GI50 (HL-60(TB) leukemia)?
**A.** 2.65 µM

**Q.** What about the TGI (HL-60(TB) leukemia) of the same compound?
**A.** 7.04 µM

**Q.** What about the GI50 (HOP-62 NSCLC) of the same compound?
**A.** 3.43 µM

**Q.** And the TGI (HOP-62 NSCLC)?
**A.** 14.7 µM

**Q.** And the GI50 (HOP-92 NSCLC)?
**A.** 3.7 µM

**Q.** And the TGI (HOP-92 NSCLC)?
**A.** 19.5 µM

**Q.** What about the GI50 (HS 578T breast) of the same compound?
**A.** 2.55 µM

**Q.** And the TGI (HS 578T breast)?
**A.** 7.94 µM

**Q.** And the GI50 (HT29 colon)?
**A.** 3.04 µM

**Q.** And the TGI (HT29 colon)?
**A.** 12.4 µM

**Q.** What about the GI50 (IGROV1 ovarian) of the same compound?
**A.** 4.83 µM

**Q.** What about the TGI (IGROV1 ovarian) of the same compound?
**A.** 25.9 µM

**Q.** And the GI50 (K-562 leukemia)?
**A.** 2.63 µM

**Q.** What about the TGI (K-562 leukemia) of the same compound?
**A.** 74.5 µM

**Q.** What about the GI50 (KM12 colon) of the same compound?
**A.** 3.49 µM

**Q.** And the TGI (KM12 colon)?
**A.** 16.1 µM

**Q.** And the GI50 (LOX IMVI melanoma)?
**A.** 1.92 µM

**Q.** What about the TGI (LOX IMVI melanoma) of the same compound?
**A.** 4.04 µM

**Q.** What about the GI50 (M14 melanoma) of the same compound?
**A.** 2.75 µM

**Q.** What about the TGI (M14 melanoma) of the same compound?
**A.** 7.83 µM

**Q.** What about the GI50 (MALME-3M melanoma) of the same compound?
**A.** 2.83 µM

**Q.** And the TGI (MALME-3M melanoma)?
**A.** 8.98 µM

**Q.** And the GI50 (MCF7 breast)?
**A.** 3.54 µM

**Q.** What about the TGI (MCF7 breast) of the same compound?
**A.** 10.1 µM

**Q.** And the GI50 (MDA-MB-231 breast)?
**A.** 3.07 µM

**Q.** What about the TGI (MDA-MB-231 breast) of the same compound?
**A.** 9.67 µM

**Q.** And the GI50 (MDA-MB-435)?
**A.** 2.22 µM

**Q.** What about the TGI (MDA-MB-435) of the same compound?
**A.** 7.2 µM

**Q.** What about the GI50 (MOLT-4 leukemia) of the same compound?
**A.** 2.18 µM

**Q.** And the TGI (MOLT-4 leukemia)?
**A.** 6.24 µM

**Q.** And the GI50 (NCI-H226 lung)?
**A.** 2.76 µM

**Q.** And the TGI (NCI-H226 lung)?
**A.** 7.56 µM

**Q.** What about the GI50 (NCI-H23 lung) of the same compound?
**A.** 4.38 µM

**Q.** What about the TGI (NCI-H23 lung) of the same compound?
**A.** 24.3 µM

**Q.** And the GI50 (NCI-H460 lung)?
**A.** 3.78 µM

**Q.** What about the TGI (NCI-H460 lung) of the same compound?
**A.** 16.4 µM

**Q.** And the GI50 (NCI-H522 lung)?
**A.** 2.52 µM

**Q.** And the TGI (NCI-H522 lung)?
**A.** 7.94 µM

**Q.** What about the GI50 (NCI/ADR-RES ovarian) of the same compound?
**A.** 3.19 µM

**Q.** And the TGI (NCI/ADR-RES ovarian)?
**A.** 16 µM

**Q.** And the GI50 (OVCAR-3 ovarian)?
**A.** 3.1 µM

**Q.** What about the TGI (OVCAR-3 ovarian) of the same compound?
**A.** 9.84 µM

**Q.** And the GI50 (OVCAR-4 ovarian)?
**A.** 13.2 µM

**Q.** What about the TGI (OVCAR-4 ovarian) of the same compound?
**A.** 70.5 µM

**Q.** What about the GI50 (OVCAR-5 ovarian) of the same compound?
**A.** 11.8 µM

**Q.** What about the TGI (OVCAR-5 ovarian) of the same compound?
**A.** 36.9 µM

**Q.** What about the GI50 (OVCAR-8 ovarian) of the same compound?
**A.** 9.12 µM

**Q.** What about the TGI (OVCAR-8 ovarian) of the same compound?
**A.** 56.1 µM

**Q.** And the GI50 (PC-3 prostate)?
**A.** 3.66 µM

**Q.** And the TGI (PC-3 prostate)?
**A.** 19.7 µM

**Q.** What about the GI50 (RPMI-8226 leukemia) of the same compound?
**A.** 1.57 µM

**Q.** What about the TGI (RPMI-8226 leukemia) of the same compound?
**A.** 4.73 µM

**Q.** And the GI50 (RXF 393 renal)?
**A.** 1.81 µM

**Q.** What about the TGI (RXF 393 renal) of the same compound?
**A.** 3.72 µM

**Q.** What about the GI50 (SF-268 CNS) of the same compound?
**A.** 3.57 µM

**Q.** What about the TGI (SF-268 CNS) of the same compound?
**A.** 16.5 µM

**Q.** What about the GI50 (SF-295 CNS) of the same compound?
**A.** 1.98 µM

**Q.** And the TGI (SF-295 CNS)?
**A.** 4.05 µM

**Q.** And the GI50 (SF-539 CNS)?
**A.** 1.58 µM

**Q.** What about the TGI (SF-539 CNS) of the same compound?
**A.** 3.56 µM

**Q.** What about the GI50 (SK-MEL-2 melanoma) of the same compound?
**A.** 2.72 µM

**Q.** And the TGI (SK-MEL-2 melanoma)?
**A.** 7.57 µM

**Q.** And the GI50 (SK-MEL-28 melanoma)?
**A.** 1.9 µM

**Q.** What about the TGI (SK-MEL-28 melanoma) of the same compound?
**A.** 4.67 µM

**Q.** And the GI50 (SK-MEL-5 melanoma)?
**A.** 1.91 µM

**Q.** And the TGI (SK-MEL-5 melanoma)?
**A.** 3.63 µM

**Q.** What about the GI50 (SK-OV-3 ovarian) of the same compound?
**A.** 3.5 µM

**Q.** And the TGI (SK-OV-3 ovarian)?
**A.** 10.5 µM

**Q.** What about the GI50 (SN12C renal) of the same compound?
**A.** 10.1 µM

**Q.** What about the TGI (SN12C renal) of the same compound?
**A.** 30.6 µM

**Q.** And the GI50 (SNB-19 CNS)?
**A.** 6.2 µM

**Q.** And the TGI (SNB-19 CNS)?
**A.** 31.1 µM

**Q.** And the GI50 (SR leukemia)?
**A.** 2.31 µM

**Q.** And the TGI (SR leukemia)?
**A.** 9.18 µM

**Q.** And the GI50 (SW-620 colon)?
**A.** 2.81 µM

**Q.** And the TGI (SW-620 colon)?
**A.** 8.68 µM

**Q.** And the GI50 (T-47D breast)?
**A.** 3.98 µM

**Q.** And the TGI (T-47D breast)?
**A.** 29.7 µM

**Q.** And the GI50 (TK-10 renal)?
**A.** 11.3 µM

**Q.** And the TGI (TK-10 renal)?
**A.** 39.4 µM

**Q.** And the GI50 (U251 CNS)?
**A.** 2.47 µM

**Q.** What about the TGI (U251 CNS) of the same compound?
**A.** 16.4 µM

**Q.** What about the GI50 (UACC-257 melanoma) of the same compound?
**A.** 2.36 µM

**Q.** And the TGI (UACC-257 melanoma)?
**A.** 6.86 µM

**Q.** What about the GI50 (UACC-62 melanoma) of the same compound?
**A.** 2.05 µM

**Q.** What about the TGI (UACC-62 melanoma) of the same compound?
**A.** 5.2 µM

**Q.** And the GI50 (UO-31 renal)?
**A.** 2.68 µM

**Q.** What about the TGI (UO-31 renal) of the same compound?
**A.** 10.5 µM
